Read-outs that look alike come from different tables or passages of the source. Bridge positions count the residues as written; N and C are the ends. Square brackets hold non-standard residues; d marks the D form. Peptide text beside a SMILES is read from it. * marks the point of attachment. Ileψ(thiazoline)Cys = CC[C@H](C)[C@H](N)C1=N[C@H](C(=O)*)CS1; dOrn = NCCC[C@@H](N)C(=O)O
System: Entamoeba histolytica
Format: cell-based
Excerpt: E. histolytica isolates representing three distinct zymodemes (I, II or XIV) were derived from a range of geographical locations. The patients from whom the isolates were obtained were either pathogenic (i.e. presented dysentery), or non-pathogenic (i.e., presented a non-dysenteric stage of infection characterized by passing of cysts or trophozoites). The following table identifies the E. histolytica isolates in accordance with the above criteria:
Each isolate was a xenic culture, i.e., it contained, in addition to the E. histolytica amoeba, the normally occurring patient faecal microflora. The cultures were maintained according to the method of Robinson, Trans. Roy. Soc. Trop. Med. Hyg. 62, 285-94, (1968). Bacitracin (70 I.U./mg) and its zinc salt (65 I.U./mg) were obtained from Apothekernes Laboratorium A.S (Oslo, Norway). Following microtitre-assay standardization and pilot testing of the drugs (results not presented), the following assay procedure was established. Bacitracin was screened over the range of 20.0-0.625 mg/ml by doubling dilution. 30 mg/ml bacitracin was also examined. […] The remaining wells were run as controls. An initial stock solution of 75 mg/ml bacitracin was prepared in starch-free Robinson medium (SFRM) . Subsequent to loading the first set of wells, the stock was diluted with SFRM to 50 mg/ml, which was used to prepare the remaining concentrations. […] 100 μl volumes of both drugs were then double-diluted in SFRM to provide 2.5X concentrates of the required final concentrations in the microtitre plates. 50 μl of a 25 mg% starch (BDH) solution (in SFRM) was then added to each well. 16-18 hours before the end of the required 48-hour culture period, the amoeba isolates were passaged to fresh tubes containing starch-free Robinson medium. At the end of the culture period, the amoebae were harvested in a small volume of medium and resuspended in at least 20 volumes SFRM. The suspensions were centrifuged at 1000 rpm for 5 minutes prior to re-suspension in fresh medium and counted in a modified Neubauer chamber. Amoebae were centrifuged as before and the pellet resuspended to a concentration of 2.5×10^4 /ml SFRM. 100 μl aliquots were then pipetted into respective wells to provide duplicate cultures of each isolate for each concentration assayed. The plates were then placed in an anaerobic chamber (HP11, Oxoid) at 37° C. for 24 hours. While this procedure provided sufficient starch for the amoebae, the concentration was such that at 24 hours the plates were easily read and quantitified by direct observation using an inverted microscope. Viability was assessed by the addition of Trypan blue to a final concentration of 0.1%.
Readings from each of the studies were collected and stored until all three experiments were completed in order to reduce any bias in subsequent readings. Minimun inhibitory and minimum lethal concentrations were given in mg/ml. […]

[1] = xenic isolate 70k, Experiment 1
[2] = xenic isolate 70k, Experiment 2
[3] = xenic isolate 70k, Experiment 3
[4] = xenic isolate 116k, Experiment 1
[5] = xenic isolate 116k, Experiment 2
[6] = xenic isolate 116k, Experiment 3
[7] = xenic isolate 418, Experiment 1
[8] = xenic isolate 418, Experiment 2
[9] = xenic isolate 418, Experiment 3
[10] = xenic isolate 1246, Experiment 1
[11] = xenic isolate 1246, Experiment 2
[12] = xenic isolate 1246, Experiment 3
[13] = xenic isolate AiDO, Experiment 1
[14] = xenic isolate AiDO, Experiment 2
[15] = xenic isolate AiDO, Experiment 3
[16] = xenic isolate BiLO, Experiment 1
[17] = xenic isolate BiLO, Experiment 3
[18] = xenic isolate DOGO, Experiment 1
[19] = xenic isolate DOGO, Experiment 2
[20] = xenic isolate DOGO, Experiment 3
[21] = xenic isolate OMAk, Experiment 1
[22] = xenic isolate OMAk, Experiment 3
[23] = xenic isolate Sh2, Experiment 2
[24] = xenic isolate Sh2, Experiment 3
[25] = xenic isolate T2k, Experiment 1
[26] = xenic isolate T2k, Experiment 2
[27] = xenic isolate T2k, Experiment 3
[28] = xenic isolate URU1, Experiment 1
[29] = xenic isolate URU1, Experiment 2
[30] = xenic isolate URU1, Experiment 3
[31] = xenic isolate URU19, Experiment 1

CC[C@H](C)[C@H](N)C1=N[C@H](C(=O)N[C@@H](CC(C)C)C(=O)N[C@H](CCC(=O)O)C(=O)N[C@H](C(=O)N[C@H]2CCCCNC(=O)[C@H](CC(N)=O)NC(=O)[C@@H](CC(=O)O)NC(=O)[C@H](Cc3cnc[nH]3)NC(=O)[C@@H](Cc3ccccc3)NC(=O)[C@H]([C@@H](C)CC)NC(=O)[C@@H](CCCN)NC2=O)[C@@H](C)CC)CS1 [Bacitracin, reference compound] ({Ileψ(thiazoline)Cys}-L[dE]IK[dOrn]I[dF]H[dD]N; lactam 4-C)
20.0 mg/mL: Minimum Lethal Concentration (MLC) [2] | Minimum Lethal Concentration (MLC) [8] | Minimum Lethal Concentration (MLC) [9] | Minimum Lethal Concentration (MLC) [11] | Minimum Lethal Concentration (MLC) [12] | Minimum Lethal Concentration (MLC) [17] | Minimum Lethal Concentration (MLC) (xenic isolate C1, Experiment 2) | Minimum Lethal Concentration (MLC) (xenic isolate C1, Experiment 3) | Minimum Lethal Concentration (MLC) (xenic isolate C2, Experiment 2) | Minimum Lethal Concentration (MLC) (xenic isolate DA, Experiment 3) | Minimum Lethal Concentration (MLC) [19] | Minimum Lethal Concentration (MLC) (xenic isolate GS, Experiment 2) | Minimum Lethal Concentration (MLC) (xenic isolate MS, Experiment 2) | Minimum Lethal Concentration (MLC) (xenic isolate MS, Experiment 3) | Minimum Lethal Concentration (MLC) (xenic isolate SI, Experiment 3) | Minimum Lethal Concentration (MLC) [23] | Minimum Lethal Concentration (MLC) (xenic isolate T6, Experiment 2) | Minimum Lethal Concentration (MLC) (xenic isolate T6, Experiment 3) | Minimum Lethal Concentration (MLC) [29]
30.0 mg/mL: Minimum Lethal Concentration (MLC) (xenic isolate 1, Experiment 1) | Minimum Lethal Concentration (MLC) (xenic isolate 1, Experiment 2) | Minimum Lethal Concentration (MLC) (xenic isolate 1, Experiment 3) | Minimum Lethal Concentration (MLC) [1] | Minimum Lethal Concentration (MLC) [3] | Minimum Lethal Concentration (MLC) [4] | Minimum Lethal Concentration (MLC) [5] | Minimum Lethal Concentration (MLC) [6] | Minimum Lethal Concentration (MLC) [7] | Minimum Lethal Concentration (MLC) [10] | Minimum Lethal Concentration (MLC) [13] | Minimum Lethal Concentration (MLC) [14] | Minimum Lethal Concentration (MLC) [15] | Minimum Lethal Concentration (MLC) [16] | Minimum Lethal Concentration (MLC) (xenic isolate C1, Experiment 1) | Minimum Lethal Concentration (MLC) (xenic isolate C2, Experiment 1) | Minimum Lethal Concentration (MLC) (xenic isolate C2, Experiment 3) | Minimum Lethal Concentration (MLC) (xenic isolate DA, Experiment 1) | Minimum Lethal Concentration (MLC) (xenic isolate DA, Experiment 2) | Minimum Lethal Concentration (MLC) [18] | Minimum Lethal Concentration (MLC) (xenic isolate GS, Experiment 1) | Minimum Lethal Concentration (MLC) (xenic isolate GS, Experiment 3) | Minimum Lethal Concentration (MLC) (xenic isolate MS, Experiment 1) | Minimum Lethal Concentration (MLC) [21] | Minimum Lethal Concentration (MLC) [22] | Minimum Lethal Concentration (MLC) (xenic isolate SI, Experiment 1) | Minimum Lethal Concentration (MLC) [24] | Minimum Lethal Concentration (MLC) [25] | Minimum Lethal Concentration (MLC) [26] | Minimum Lethal Concentration (MLC) [27] | Minimum Lethal Concentration (MLC) (xenic isolate T4, Experiment 1) | Minimum Lethal Concentration (MLC) (xenic isolate T4, Experiment 2) | Minimum Lethal Concentration (MLC) (xenic isolate T4, Experiment 3) | Minimum Lethal Concentration (MLC) (xenic isolate T6, Experiment 1) | Minimum Lethal Concentration (MLC) [28] | Minimum Lethal Concentration (MLC) [30] | Minimum Lethal Concentration (MLC) [31]
2.5 mg/mL: Minimum Inhibitory Concentration (MIC) [10] | Minimum Inhibitory Concentration (MIC) [14] | Minimum Inhibitory Concentration (MIC) [15] | Minimum Inhibitory Concentration (MIC) (xenic isolate C2, Experiment 1) | Minimum Inhibitory Concentration (MIC) (xenic isolate C2, Experiment 3) | Minimum Inhibitory Concentration (MIC) (xenic isolate DA, Experiment 1) | Minimum Inhibitory Concentration (MIC) [18] | Minimum Inhibitory Concentration (MIC) [19] | Minimum Inhibitory Concentration (MIC) (xenic isolate GS, Experiment 1) | Minimum Inhibitory Concentration (MIC) (xenic isolate MS, Experiment 2) | Minimum Inhibitory Concentration (MIC) [21] | Minimum Inhibitory Concentration (MIC) (xenic isolate SI, Experiment 1) | Minimum Inhibitory Concentration (MIC) (xenic isolate SI, Experiment 3) | Minimum Inhibitory Concentration (MIC) [24] | Minimum Inhibitory Concentration (MIC) [25] | Minimum Inhibitory Concentration (MIC) [26] | Minimum Inhibitory Concentration (MIC) (xenic isolate T4, Experiment 2) | Minimum Inhibitory Concentration (MIC) (xenic isolate T6, Experiment 1) | Minimum Inhibitory Concentration (MIC) (xenic isolate T6, Experiment 2) | Minimum Inhibitory Concentration (MIC) (xenic isolate T6, Experiment 3) | Minimum Inhibitory Concentration (MIC) [28] | Minimum Inhibitory Concentration (MIC) [29] | Minimum Inhibitory Concentration (MIC) [31]
0.63 to 10.0 mg/mL: MICs (span over all xenic isolates and studies)
24 mg/mL: Minimum Lethal Concentration (MLC) (xenic Isolate C1, single study over a narrower range of drug concentration (Table 4))
5.0 mg/mL: Minimum Inhibitory Concentration (MIC) (xenic isolate 1, Experiment 1) | Minimum Inhibitory Concentration (MIC) (xenic isolate 1, Experiment 3) | Minimum Inhibitory Concentration (MIC) [1] | Minimum Inhibitory Concentration (MIC) [2] | Minimum Inhibitory Concentration (MIC) [7] | Minimum Inhibitory Concentration (MIC) [16] | Minimum Inhibitory Concentration (MIC) (xenic isolate C1, Experiment 2) | Minimum Inhibitory Concentration (MIC) (xenic isolate C2, Experiment 2) | Minimum Inhibitory Concentration (MIC) (xenic isolate DA, Experiment 2) | Minimum Inhibitory Concentration (MIC) (xenic isolate MS, Experiment 1) | Minimum Inhibitory Concentration (MIC) [23] | Minimum Inhibitory Concentration (MIC) (xenic isolate T4, Experiment 1)
21 mg/mL: Minimum Lethal Concentration (MLC) (xenic Isolate 1, single study over a narrower range of drug concentration (Table 4))
1.25 mg/mL: Minimum Inhibitory Concentration (MIC) [5] | Minimum Inhibitory Concentration (MIC) [6] | Minimum Inhibitory Concentration (MIC) [17] | Minimum Inhibitory Concentration (MIC) (xenic isolate C1, Experiment 3) | Minimum Inhibitory Concentration (MIC) (xenic isolate GS, Experiment 2) | Minimum Inhibitory Concentration (MIC) (xenic isolate MS, Experiment 3) | Minimum Inhibitory Concentration (MIC) [22] | Minimum Inhibitory Concentration (MIC) [30]
0.63 mg/mL: Minimum Inhibitory Concentration (MIC) [8] | Minimum Inhibitory Concentration (MIC) [9] | Minimum Inhibitory Concentration (MIC) [12] | Minimum Inhibitory Concentration (MIC) (xenic isolate DA, Experiment 3) | Minimum Inhibitory Concentration (MIC) [20] | Minimum Inhibitory Concentration (MIC) (xenic isolate GS, Experiment 3) | Minimum Inhibitory Concentration (MIC) [27] | Minimum Inhibitory Concentration (MIC) (xenic isolate T4, Experiment 3)
10.0 mg/mL: Minimum Inhibitory Concentration (MIC) (xenic isolate 1, Experiment 2) | Minimum Inhibitory Concentration (MIC) [3] | Minimum Inhibitory Concentration (MIC) [4] | Minimum Inhibitory Concentration (MIC) [11] | Minimum Inhibitory Concentration (MIC) [13] | Minimum Inhibitory Concentration (MIC) (xenic isolate C1, Experiment 1) | Minimum Lethal Concentration (MLC) [20]

— patent US5300491A, “Treatment of protozoal infection” (priority 1992, dated 1994)
